These results are taken from patent US20110124701A1, “USE OF HDAC INHIBITORS FOR THE TREATMENT OF LYMPHOMAS” (NOVARTIS AG, priority 2006, published 2011).

Bounds are passed on as bounds.

Series [1] concerns HuT78 CTCL cell line. Put plainly: Monolayer growth inhibition assay (MTT/MTS), HuT78. The class given is cell-based. As to the method:
(§1) The antibiotics penicillin 100 units/mL) and streptomycin (100 μg/mL) were added to prevent bacterial contamination and maintained at 37° C. and 5% CO2 environment in a sterile incubator.
(§2) The MTT is a colorimetric assay to determine the cell proliferation rate. The yellow tetrazolium MTT (3-(4,5-dimethylthiazolyl-2)-2,5-diphenyltetrazolium bromide) is reduced by metabolically active cells, in part by the action of dehydrogenase enzymes, to generate reducing equivalents, such as NADH and NADPH. The resulting intracellular purple formazan can be solubilized and quantified by spectrophotometric means. The signals produced is directly proportional to the cell numbers. Describing the MTT assay in detail, experiments were done using 6-point or 9-point drug titrations in multi-well tissue culture dishes, with outer rows left empty. Cells were suspended in complete media at densities of between 10^3 and 10^4 cell/mL, respectively, and added per well. The appropriate medium (200 μL) was then added. Twenty-four hours later, 10 μL of MTS solution, were added to one plates to determine the activity at the time of compound addition (T0). […] The T0 plate served as a reference for initial activity at the beginning of the experiment.
(§3) Compound addition began 24 hours after seeding, the same time as the T0 determination. […] Each of the six dilutions were added in triplicate and complete medium was added to the empty outer rows without cells. […] The plates were incubated at 37° C. for 72 hours from seeding. The MTS solution was added (as for the T0 plate) and read four hours later. In order to analyze the data, the average value of media alone (background) was subtracted from each experimental well and the triplicate values were averaged for each compound dilution. The following formulas were used to calculate percent growth.
(§4) If X>T0, % Growth=100×((X−T0)/(GC−T0))
(§5) If X<T0, % Growth=100×(X−T0)/T0)
(§6) T0=average value of T0 minus background GC=average value of untreated cells (in triplicate) minus background X=average value of compound treated cells (in triplicate) minus background […]

Series [2] relates to MJ CTCL cell line. Kind of series: Monolayer growth inhibition assay (MTT/MTS), MJ. It counts as cell-based, human. As to the method: (§7) Cell lines derived from human CTCL (mycosis fungoides), HUT78, HUT102, HH and MJ were treated with Compound III (LBH589) to assess their sensitivity to the drug. Cells were generally maintained in artificial media, such as Dubelco Modified Eagle Medium (DMEM) or RPMI and supplemented with various levels up to 15% fetal bovine serum. The antibiotics penicillin 100 units/mL) and streptomycin (100 μg/mL) were added to prevent bacterial contamination and maintained at 37° C. and 5% CO2 environment in a sterile incubator.
(§8) The MTT is a colorimetric assay to determine the cell proliferation rate. The yellow tetrazolium MTT (3-(4,5-dimethylthiazolyl-2)-2,5-diphenyltetrazolium bromide) is reduced by metabolically active cells, in part by the action of dehydrogenase enzymes, to generate reducing equivalents, such as NADH and NADPH. The resulting intracellular purple formazan can be solubilized and quantified by spectrophotometric means. The signals produced is directly proportional to the cell numbers. Describing the MTT assay in detail, experiments were done using 6-point or 9-point drug titrations in multi-well tissue culture dishes, with outer rows left empty. Cells were suspended in complete media at densities of between 10^3 and 10^4 cell/mL, respectively, and added per well. The appropriate medium (200 μL) was then added. Twenty-four hours later, 10 μL of MTS solution, were added to one plates to determine the activity at the time of compound addition (T0). This plate was incubated at 37° C. for 4 hours and the optical density was measured on a Molecular Devices Thermomax at 490 nm using the Softmax program. The T0 plate served as a reference for initial activity at the beginning of the experiment.
(§9) Compound addition began 24 hours after seeding, the same time as the T0 determination. […] Each of the six dilutions were added in triplicate and complete medium was added to the empty outer rows without cells. The compounds were added to the plates singly or in combination with Compound III (LBH589). The plates were incubated at 37° C. for 72 hours from seeding. The MTS solution was added (as for the T0 plate) and read four hours later. In order to analyze the data, the average value of media alone (background) was subtracted from each experimental well and the triplicate values were averaged for each compound dilution. The following formulas were used to calculate percent growth.
as §4, §5, §6

For series [3], the system named is HH CTCL cell line. Put plainly: Monolayer growth inhibition assay (MTT/MTS), HH. The class given is cell-based. As to the method:
as §1, §2, §3, §4, §5, §6

For series [4], the system named is HH CTCL mouse tumor xenografts. Kind of series: HH CTCL tumor xenograft in mice. The class given is in vivo. Particulars: 2 weeks. As to the method:
Additionally, Compound III (LBH589) induced the regression of the HH CTCL mouse tumor xenografts in vivo. Mice were implanted with the HH CTCL cell lines and after tumors have grown to 150 mm^3, the mice were separated into four groups each containing eight mice. The groups of mice were dosed intravenously with vehicle, 5 mg/kg, 10 mg/kg, or 15 mg/kg daily.

The test system of series [5] is advanced-stage CTCL. Put plainly: Phase I study in patients with advanced-stage CTCL. It counts as in vivo, human. As to the method:
Adult patients with histologically-confirmed, advanced solid tumors or non-Hodgkin's lymphoma including CTCL whose disease has progressed despite standard therapy or for whom no standard therapy exists, will be enrolled onto arms 1-3.
Patients with advanced-stage CTCL were entered into a Phase I study. All patients had progressed following prior systemic therapy. Patients were entered into the DLT, […], dose level 30 mg M,W,F cohort (n=1) or the subsequent MTD, maximum tolerated dose, dose level 20 mg M,W,F weekly (n=8). Compound (III) was continued until disease progression or unacceptable toxicity. The first three patients had 3 mm punch biopsies from CTCL-involved skin lesions performed at 0, 4, 8 and 24 hours after administration, which were subjected to gene expression profiling. Microarray analysis was performed using the Affymetrix U133 plus 2.0 GeneChip that has 47,000 probesets and interrogates 38,500 genes.

The subject of series [6] is HuT102 CTCL cell line. Kind of series: Monolayer growth inhibition assay (MTT/MTS), HuT102. The class given is cell-based, human. As to the method: as §7, §8, §9, §4, §5, §6
The mark [7] stands for this setting: of 9 CTCL patients evaluable for response, 20 or 30 mg M,W,F.

Consider `Cc1[nH]c2ccccc2c1CCNCc1ccc(/C=C/C(=O)NO)cc1` [Compound III, N-hydroxy-3-[4-[[[2-(2-methyl-1H-indol-3-yl)-ethyl]-amino]methyl]phenyl]-2E-2-propenamide], for which the “sensitivity (IC50) in words” value in series [1] (HUT78 cells), in series [2] (MJ cells), in series [3] (HH cells) and in series [6] (HUT102 cells) was “extreme subnanomolar sensitivity” each time. The IC50 in series [1] (Homo sapiens, HuT78, 72 h, read-out: IC50 (concentration required to inhibit cell growth by 50%)) amounted to 0.2 nM; in series [2] (Homo sapiens, 72 h, read-out: IC50 (concentration required to inhibit cell growth by 50%)), 0.3 nM; in series [3] (Homo sapiens, HH, 72 h, read-out: IC50 (concentration required to inhibit cell growth by 50%)), 0.7 nM; in series [6] (Homo sapiens, HuT-102, 72 h, read-out: IC50 (concentration required to inhibit cell growth by 50%)) it was 0.4 nM. The “LD50 (concentration required to reduce cell number to 50% of the original inoculum)” value in series [1] (HuT78 cells, 72 hours) is 0.003 µM; in series [2] (MJ cells, 72 hours), >10 µM; in series [3] (HH cells, 72 hours) it was 0.0025 µM; in series [6] (HuT102 cells, 72 hours) it was >10 µM. Also, the “sensitivity to induced cell death in words” value in series [2] (MJ cells, HTLV infection) was “insensitive”; in series [6] (HUT102 cells, HTLV infection), “insensitive”. In addition, the figures for the “effect on tumor growth” value in series [4] (5 mg/kg daily iv), in series [4] (10 mg/kg daily iv) and in series [4] (15 mg/kg daily iv) were “tumor growth inhibition”, “almost complete tumor regression” and “almost complete tumor regression”, respectively. Moreover, the “MTD, maximum tolerated dose, dose level” value in series [5] (M,W,F weekly, CTCL patients) is recorded as 20 mg. Also, the “time to progression of a responding patient with CR” value in series [5] (discontinued after 10 doses due to Grade III diarrhea) stood at 8 m. Besides, the DLT dose level in series [5] (human, in vivo) is given as 30 mg. Further, the “patients achieving stable disease (SD) with ongoing improvement” value in series [5] (setting [7]) was 1 patients. Moreover, in series [5] (setting [7]), the “patients attaining a complete response (CR)” value is given as 2 patients. The “patients attaining a partial response (PR)” value in series [5] (setting [7]) was 2 patients. In addition, in series [5] (setting [7]), the “patients progressed on treatment (PD)” value is given as 4 patients.
